Reference: ChEMBL document CHEMBL4483862, “Open-source discovery of chemical leads for next-generation chemoprotective antimalarials” (2018)

System: Plasmodium berghei
Assay: Luciferase/luciferin-expressing antifolate-resistant parasites were used to infect a culture of HepG2 cells that were pre-incubated with compounds. Infected hepatocytes emit light due to the luciferase reaction. Assay results are presented as the percent inhibition of light emission compared to control. […]
Format: functional
Details: sporozoite; for IC90: read-out: LUCIFERASE INFECTION ASSAY - IC90
[1] = read-out: LUCIFERASE INFECTION ASSAY - IC50

SMILES	IC50 [1] [µM]	IC90 [µM]	further results
Cc1cc(C(=O)NCCNC(=O)c2cccn2C)c2nc3n(c2n1)CCCCC3	> 10	> 10	–
CN1/C(=C\C=N\NC(=O)c2cnccn2)C(C)(C)c2ccccc21	> 10	> 10	–
Cc1c(Cl)cccc1N=C(NS(=O)(=O)c1cccs1)c1ccccc1	> 10	> 10	–
CC(C)CN(C(=O)CN(C)C(=O)c1ccco1)c1c(N)n(CC(C)C)c(=O)[nH]c1=O	> 10	> 10	–
CC(C)S(=O)(=O)c1cscc1NC(=O)c1ccc(-c2cc(C(F)(F)F)nn2C)s1	–	> 7.12	IC50 (PBLUC_HILL_SLOPE 12.2, PBLUC_R_SQUARED 0.329, read-out: LUCIFERASE INFECTION ASSAY - IC50): 6.55 µM
CC(Sc1nnc(/C=C/c2ccc(F)cc2)[nH]1)C(=O)N(Cc1ccccc1)Cc1ccccc1 (stereo not given)	–	3.74	IC50 (HEPG2TOX_HILL_SLOPE 2.54, HEPG2TOX_R_SQUARED 0.989, PBLUC_HILL_SLOPE 16.4, PBLUC_R_SQUARED 0.588, read-out: LUCIFERASE INFECTION ASSAY - IC50): 3.27 µM
Cc1ccc(CSc2nnc(OC(=O)N(C)C)n2-c2cccc(Cl)c2)cc1	–	> 8.19	IC50 (PBLUC_HILL_SLOPE 1.76, PBLUC_R_SQUARED 0.153, read-out: LUCIFERASE INFECTION ASSAY - IC50): 6.97 µM
Cc1csc2sc(C(=O)N3CCOCC3)c(C)c12	> 11.7	> 11.7	–
CCN(Cc1ccc(OCc2ccccc2)cc1)C(=O)CN1CCc2cc(S(N)(=O)=O)ccc21	–	> 10	IC50 (HEPG2TOX_HILL_SLOPE 0.311, HEPG2TOX_R_SQUARED 0.495, read-out: LUCIFERASE INFECTION ASSAY - IC50): > 10 µM
COc1ccc2cc(/C(C)=N/OC(=O)Nc3ccccc3)ccc2c1	–	> 9.87	IC50 (HEPG2TOX_HILL_SLOPE 1.11, HEPG2TOX_R_SQUARED 0.992, read-out: LUCIFERASE INFECTION ASSAY - IC50): > 9.87 µM
COc1ccc(-c2nc(NC(=O)c3cnc(C)cn3)sc2C)cc1	> 10	> 10	–
Cn1c(C(C#N)C(=O)c2cc(-c3ccccc3)nc3ccccc23)nc2ccccc21 (stereo not given)	–	7.46	IC50 (HEPG2TOX_HILL_SLOPE 3.46, HEPG2TOX_R_SQUARED 0.527, PBLUC_HILL_SLOPE 3.86, PBLUC_R_SQUARED 0.794, read-out: LUCIFERASE INFECTION ASSAY - IC50): 4.22 µM
COc1ccc(-c2cc(NC(=O)C3CCN(C(=O)C(C)C)CC3)ccc2OC(F)F)cc1	–	> 10	IC50 (PBLUC_HILL_SLOPE 1.23, PBLUC_R_SQUARED 0.265, read-out: LUCIFERASE INFECTION ASSAY - IC50): 3.95 µM
CC(=O)c1c(C)cc(C)c(CNc2ccc(NC(=O)C3CC3)cc2C(F)(F)F)c1C	–	4.59	IC50 (HEPG2TOX_HILL_SLOPE 10.3, HEPG2TOX_R_SQUARED 0.233, PBLUC_HILL_SLOPE 1.48, PBLUC_R_SQUARED 0.914, read-out: LUCIFERASE INFECTION ASSAY - IC50): 1.03 µM
CC(=O)Nc1cccc(-c2ccc3ncc(-c4ccccc4)n3n2)c1	–	> 10	IC50 (HEPG2TOX_HILL_SLOPE 0.716, HEPG2TOX_R_SQUARED 0.978, PBLUC_HILL_SLOPE 1, PBLUC_R_SQUARED 0.535, read-out: LUCIFERASE INFECTION ASSAY - IC50): 3.87 µM
Nc1ncnc(Sc2nnnn2-c2ccccc2)c1[N+](=O)[O-]	–	> 10	IC50 (HEPG2TOX_HILL_SLOPE 9.17, HEPG2TOX_R_SQUARED 0.951, read-out: LUCIFERASE INFECTION ASSAY - IC50): > 10 µM
FC(F)(F)c1cccc(-c2noc(CCc3nc4ccccc4[nH]3)n2)c1	–	7.22	IC50 (PBLUC_HILL_SLOPE 3.19, PBLUC_R_SQUARED 0.657, read-out: LUCIFERASE INFECTION ASSAY - IC50): 3.63 µM
N#C/C(=C\c1ccc(N(c2ccccc2)c2ccccc2)cc1)C(=O)Nc1nccs1	0.525	1.79	–
COc1cc([N+](=O)[O-])ccc1NC(=O)COC(=O)c1c(C)nn(Cc2ccc(Cl)cc2Cl)c1Cl	–	> 10	IC50 (FFLUC_HILL_SLOPE 15, FFLUC_R_SQUARED 0.28, read-out: LUCIFERASE INFECTION ASSAY - IC50): > 10 µM
Cn1c(-c2ccccc2)c(/C=N/Nc2ccnc3cc(Cl)ccc23)c2ccccc21	–	6.47	IC50 (HEPG2TOX_HILL_SLOPE 17.0, 5.95, HEPG2TOX_R_SQUARED 0.687, 0.986, PBLUC_HILL_SLOPE 1.29, PBLUC_R_SQUARED 0.592, read-out: LUCIFERASE INFECTION ASSAY - IC50): 1.17 µM
Cc1cc(C(=O)OCc2ccc(-n3nc(C)cc3C)cc2)c2ccccc2n1	–	4.21	IC50 (HEPG2TOX_HILL_SLOPE 1.96, HEPG2TOX_R_SQUARED 0.0908, PBLUC_HILL_SLOPE 15.9, PBLUC_R_SQUARED 0.28, read-out: LUCIFERASE INFECTION ASSAY - IC50): 3.66 µM
COc1ccc(-c2nnc(SCC(=O)c3cc(F)ccc3OC)[nH]2)cc1	–	> 10	IC50 (HEPG2TOX_HILL_SLOPE 0.475, HEPG2TOX_R_SQUARED 0.679, read-out: LUCIFERASE INFECTION ASSAY - IC50): > 10 µM
C/C(=N\OC(=O)Nc1ccccc1)c1sc2nc(C(F)(F)F)nn2c1C	> 8.61	> 8.61	–

SMILES	IC50 [1] [µM]	IC90 [µM]	further results
Cc1cc(C=C2Sc3ccccc3N2C)cc(C)[n+]1C(C)C1CC2CCC1C2 (stereo not given)	–	0.589	IC50 (HEPG2TOX_HILL_SLOPE 0.905, HEPG2TOX_R_SQUARED 0.888, PBLUC_HILL_SLOPE 1.95, PBLUC_R_SQUARED 0.822, read-out: LUCIFERASE INFECTION ASSAY - IC50): 0.19 µM
O=C(Nc1cccc(C(F)(F)F)c1)Nc1ccc2nc(-c3ccc(F)c(Cl)c3)nn2c1	–	5.2	IC50 (PBLUC_HILL_SLOPE 7.54, PBLUC_R_SQUARED 0.257, read-out: LUCIFERASE INFECTION ASSAY - IC50): 3.88 µM
CNc1nc2cnc(-c3ccc(O)c(OC)c3)cc2n1Cc1ccccc1	3.17	3.99	–
COc1ccc(OCc2noc(CN3CCc4ccccc43)n2)cc1	> 2	> 2	–
Cc1c(C(=O)Nc2cccc(S(=O)(=O)N(C)C)c2)cnn1-c1ccc(=O)[nH]n1	> 10	> 10	–
NC(Cc1ccccc1)c1csc(NC(=O)Nc2ccccc2-c2ccccc2)n1 (stereo not given)	> 7.96	> 7.96	–
Cc1cc(C)n(-c2ccc3c(Cl)cc(Cl)c(O)c3n2)n1	–	0.393	IC50 (HEPG2TOX_HILL_SLOPE 0.646, HEPG2TOX_R_SQUARED 0.957, PBLUC_HILL_SLOPE 194, PBLUC_R_SQUARED 0.635, read-out: LUCIFERASE INFECTION ASSAY - IC50): 0.388 µM
Cc1cc(NC(=O)/C=C/c2cn(-c3ccccc3)nc2-c2cccnc2)ccc1N1CCN(C)CC1	–	4.23	IC50 (PBLUC_HILL_SLOPE 11.7, PBLUC_R_SQUARED 0.29, read-out: LUCIFERASE INFECTION ASSAY - IC50): 3.5 µM
CC(C)(C)c1ccc(C(=O)Nc2cc(Cl)cc(Cl)c2)cc1	> 10.2	> 10.2	–
CSc1nnc(-c2ccc(C(C)(C)C)cc2)n1-c1ccc(Cl)cc1	–	> 9.22	IC50 (PBLUC_HILL_SLOPE 1.19, PBLUC_R_SQUARED 0.789, read-out: LUCIFERASE INFECTION ASSAY - IC50): > 9.22 µM
CCCCC1(c2ccccc2)NC(=O)N(CC(=O)Nc2ccc(C#N)c(Cl)c2)C1=O (stereo not given)	> 10	> 10	–
c1ccc2cc(-c3cc4ccccc4[nH]3)ccc2c1	–	> 13.6	IC50 (HEPG2TOX_HILL_SLOPE 2.23, HEPG2TOX_R_SQUARED 0.773, PBLUC_HILL_SLOPE 13.6, PBLUC_R_SQUARED 0.0646, read-out: LUCIFERASE INFECTION ASSAY - IC50): 12.2 µM
CCOc1ncccc1C(=O)Nc1cc(S(=O)(=O)N2CCOCC2)ccc1Oc1ccccc1	–	> 10	IC50 (FFLUC_HILL_SLOPE 2.19, FFLUC_R_SQUARED 0.739, read-out: LUCIFERASE INFECTION ASSAY - IC50): > 10 µM
CCc1nc(COC(=O)c2c(C)nsc2NC)cs1	1.53	5.52	–
CSc1ccc(C2=NNC(=NC3CC3)SC2)cc1	–	> 10	IC50 (FFLUC_HILL_SLOPE 0.857, FFLUC_R_SQUARED 0.948, PBLUC_HILL_SLOPE 0.604, PBLUC_R_SQUARED 0.771, read-out: LUCIFERASE INFECTION ASSAY - IC50): 0.467 µM
Cc1cc(C)c(C2C3=C(Nc4c2c(C)nn4-c2ccccn2)c2ccccc2C3=O)c(C)c1 (stereo not given)	–	> 10	IC50 (FFLUC_HILL_SLOPE 11.5, FFLUC_R_SQUARED 0.374, PBLUC_HILL_SLOPE 1.59, PBLUC_R_SQUARED 0.668, read-out: LUCIFERASE INFECTION ASSAY - IC50): 5.07 µM
c1csc(-c2cn3c(-c4ccncc4)cnc3cn2)c1	–	> 11.9	IC50 (PBLUC_HILL_SLOPE 5.41, PBLUC_R_SQUARED 0.452, read-out: LUCIFERASE INFECTION ASSAY - IC50): 10.5 µM
COc1ccc(Sc2nc(N(C)C)ncc2OC)cc1	–	> 11.3	IC50 (HEPG2TOX_HILL_SLOPE 2.8, HEPG2TOX_R_SQUARED 0.967, PBLUC_HILL_SLOPE 2.43, PBLUC_R_SQUARED 0.609, read-out: LUCIFERASE INFECTION ASSAY - IC50): 6.22 µM
O=C(c1cnc2ccc3ccccc3c2c1)c1cc(F)ccc1O	–	> 10	IC50 (HEPG2TOX_HILL_SLOPE 3.61, HEPG2TOX_R_SQUARED 0.979, PBLUC_HILL_SLOPE 3.48, PBLUC_R_SQUARED 0.782, read-out: LUCIFERASE INFECTION ASSAY - IC50): 5.41 µM
COCCNC(=O)CN(C)S(=O)(=O)c1ccc2c(c1)CCC(=O)N2	> 10	> 10	–
Cc1nnc(Sc2nc(CN3CCCCC3)nc3sc4c(c23)CCC4)s1	–	> 10	IC50 (HEPG2TOX_HILL_SLOPE 9.43, HEPG2TOX_R_SQUARED 0.839, read-out: LUCIFERASE INFECTION ASSAY - IC50): > 10 µM
c1ccc(C(Sc2ncnc3sccc23)c2ccccc2)cc1	> 10	> 10	–
